Laboratory results as given in article PMC7999199, “Novel Cationic Meso-Arylporphyrins and Their Antiviral Activity against HSV-1” (Pharmaceuticals, 2021).
Where two headings read alike, the source gives them in different places.

How the values were obtained:
[1] = Vero cell viability, MTT test, 72 h; assay type: cell-based, African green monkey; details: African green monkey, Vero cells, MTT; for viability at 72 h, 0.39 µM: 0.39 µM/L; for viability at 72 h, 0.39 µM / viability at 72 h, 0.78 µM / viability at 72 h, 1.56 µM / viability at 72 h, 3.13 µM / viability at 72 h, 6.25 µM / viability at 72 h, 12.5 µM / viability at 72 h, 25 µM / viability at 72 h, 50 µM / viability at 72 h, 100 µM: Vero, 3 days, read-out: Viability % ±s.d.; for viability at 72 h, 0.78 µM: 0.78 µM/L; for viability at 72 h, 1.56 µM: 1.56 µM/L; for viability at 72 h, 3.13 µM: 3.13 µM/L; for viability at 72 h, 6.25 µM: 6.25 µM/L; for viability at 72 h, 12.5 µM: 12.50 µM/L; for viability at 72 h, 25 µM: 25 µM/L; for viability at 72 h, 50 µM: 50 µM/L; for viability at 72 h, 100 µM: 100 µM/L; for CC50 at 72 h: dissolved in PBS
Description: (§1) Before testing antiviral activity, the effect of porphyrins dissolved in PBS and Pluronic F-127 on the viability of Vero cells was evaluated. Cells were incubated for 72 h using different concentrations of porphyrins (0.39–100 μM). Viability was assessed using the MTT test (Figure S13, Table S1, Supplementary Information). The viability of Vero cells depends on the porphyrins’ structure and formulation.
(§2) Cell viability was assessed by MTT reduction assay. Briefly, confluent monolayer Vero cells in 96-well plates (15000 cells/well) were incubated for 72 h with different concentrations of the compounds ranging from 0.39 µM to 100 µM in DMEM-1% FCS at 36.8 °C in 5% CO2 atmosphere. Next, cells were incubated for 1 h with 1.0 mg/mL of 3-(4,5-dimethylthiazol-2-y1)-2,5-diphenyltetrazolium bromide (MTT, PanEco, Moscow, Russia) at 36.8 °C, and then the solution was removed, and precipitated formazan was diluted in DMSO (PanEco, Moscow, Russia). The solution was read on a spectrophotometer at 540 nm. For each concentration, the average cell viability was calculated from the data of three experiments with three replicates each and was expressed as a percentage compared to the untreated cells (100%).
(§3) Table s1. Vero cell viability after exposure to 3a, 3b, TMEPyP compounds dissolved in PBS and Pluronic F-127. Different concen-
(§4) trations of compounds were applied to the cell monolayer and after incubation for 3 days, the number of living cells was calculated
(§5) in the MTT test. Each point represents the mean ± standard deviation of three experiments with […] each. n.d. –not done.
(§6) Compound Concentration, µM/L Viability % ±s.d.

[2] = test system: Vero cells; experiment: Vero cell viability, MTT test, 72 h; assay type: cell-based, African green monkey; details: Vero cells; for CC50: Pluronic F-127 (F127) micellar formulation, MTT, 72 h
Description: as §1, §2, §3, §4, §5, §6

[3] = test system: HSV-1 replication in Vero cells; experiment: Influence of the compounds on HSV-1 virus yield during infection of Vero cells (early/late replication stages); assay type: cell-based, herpes simplex virus type 1; details: for stages of HSV-1 replication affected: Vero cells, MOI 0.1; for effect on HSV-1 replication: simultaneous addition with the virus
Description: Porphyrin’s antiviral action was then determined in terms of their effect on the HSV-1 replication stages in Vero cells. A two-part experiment was conducted to evaluate the influence of the obtained compounds on the early or late stages of replication (Figure 6). First, the effect of porphyrins on the initial stages of reproduction was estimated. Thus, HSV-1 at MOI 0.1 was adsorbed on Vero cells in a medium containing the studied porphyrin; then the cell monolayers were washed from the nonadsorbed virus, and porphyrins of the same concentration were introduced into the plate (1) (Vero Cells + HSV-1 + Porphyrin, left arrow. Figure 6), or the cell monolayers were washed from the nonadsorbed virus, and the medium without the test compound was introduced into the cell monolayers microwell plate (2) (Porphyrin + HSV-1 + Porphyrin medium, right arrow. Figure 6).
The influence of porphyrin antiviral activity on the HSV-1 postadsorption stages was simultaneously evaluated in this experiment. The studied compounds were introduced after HSV-1 adsorption on Vero cells and washing of nonadsorbed virus particles (3) (Vero Cells +HSV-1, left arrow. Figure 6) or, after virus adsorption and nonadsorbed virus particles washing, only the medium was introduced (control of virus reproduction) (4) (Vero Cells +HSV-1, right arrow. Figure 6). After the formation of a pronounced cytopathic effect of the virus in control cultures (48 h of cultivation), the virus infection activity of all the samples was determined by titration in a Vero cell culture (Figure 7).
Four variants were used to test compound efficiency in controlling development of infection in Vero cells. The Vero cells were seeded in 24-well plate in 1 mL of DMEM-5% FCS. (1) The cell monolayers were treated simultaneously with HSV-1 (MOI 0.1) in DMEM-1% FCS (900 µL) and investigated compounds in DMEM-1% FCS (100 µL) for 2 h at 36.8 °C in 5% CO2 atmosphere; then the cell monolayers were washed from the nonadsorbed virus and treated with 900 µL of DMEM-1%FCS and the same concentrations of compounds (100 µL). (2) The cell monolayers were treated simultaneously with HSV-1 (MOI 0.1) DMEM-1% FCS (900 µL) and compounds DMEM-1%FCS (100 µL) for 2 h at 36.8 °C in 5% CO2 atmosphere, and then the cell monolayers were washed from the nonadsorbed virus, after which only DMEM-1% FCS (1 mL) was added. (3) The cell monolayers were treated with HSV-1 (MOI 0.1) DMEM-1% FCS (900 µL) and DMEM-1% FCS (100 µL) for 2 h at 36.8 °C in 5% CO2 atmosphere and washed from the nonadsorbed virus; then DMEM-1% FCS (900 µL) and the same compounds in DMEM-1% FCS (100 µL) were added. (4) Control: the cell monolayers were treated with HSV-1 (MOI 0.1) in DMEM-1% FCS (900 µL), and DMEM-1% FCS (100 µL) was added for 2 h at 36.8 °C in 5% CO2 atmosphere and washed from the nonadsorbed virus, and then DMEM-1% FCS (1 mL) was added. In all variants, the treated cells were then incubated at 36.8 °C in 5% CO2 atmosphere.
After the development of a cytopathic effect in control cultures (HSV-1 + medium, 48 h), the virus content was determined in samples of the culture medium by applying ten-fold dilutions (100 µL) on a monolayers of Vero cells in wells of 96-well plates. After three days, virus titers were counted, and the percentage of inhibition regarding the titer of the virus in the control, which was taken as 100%, was determined. The results were presented as the average of three experiments of four replays.
Figure 7 Inhibitory effect of porphyrins on the HSV-1 replication. The Vero cells were treated with compounds 3a (100 µM) (a), 3b (12 µM and 6 µM) (b) and TMePyP (50 µM, 25 µM and 12.5 µM) (c) simultaneously with HSV-1 (MI 0.1) or after HSV-1 (MI 0.1) adsorption. The results are presented as the percentage of the virus titer with porphyrin relative to its titer in the control (without porphyrin), which was taken as 100%. Each bar represents the mean ± deviation. […]

SMILES	viability at 72 h, 0.39 µM ([1]; +F127 (Pluronic F-127)) [%]	viability at 72 h, 0.78 µM ([1]; +F127 (Pluronic F-127)) [%]	viability at 72 h, 1.56 µM ([1]; +F127 (Pluronic F-127)) [%]	viability at 72 h, 3.13 µM ([1]; +F127 (Pluronic F-127)) [%]	viability at 72 h, 6.25 µM ([1]; +F127 (Pluronic F-127)) [%]	viability at 72 h, 12.5 µM ([1]; +F127 (Pluronic F-127)) [%]	viability at 72 h, 25 µM ([1]; +F127 (Pluronic F-127)) [%]	viability at 72 h, 50 µM ([1]; +F127 (Pluronic F-127)) [%]	viability at 72 h, 100 µM ([1]; +F127 (Pluronic F-127)) [%]	viability at 72 h, 3.13 µM ([1]; -F127 (PBS)) [%]	viability at 72 h, 6.25 µM ([1]; -F127 (PBS)) [%]	viability at 72 h, 12.5 µM ([1]; -F127 (PBS)) [%]	viability at 72 h, 25 µM ([1]; -F127 (PBS)) [%]	viability at 72 h, 50 µM ([1]; -F127 (PBS)) [%]	viability at 72 h, 100 µM ([1]; -F127 (PBS)) [%]	CC50 at 72 h [1] [µM]	CC50 [2] [µM]	stages of HSV-1 replication affected [3]	other results
O=C(CC[n+]1ccccc1)Oc1ccc(-c2c3nc(c(-c4ccc(OC(=O)CC[n+]5ccccc5)cc4)c4ccc([nH]4)c(-c4ccc(OC(=O)CC[n+]5ccccc5)cc4)c4nc(c(-c5ccc(OC(=O)CC[n+]6ccccc6)cc5)c5ccc2[nH]5)C=C4)C=C3)cc1 [3a]	93 ± 4.6	99.2 ± 4.2	95.6 ± 4.2	90.8 ± 2.3	90.3 ± 7.8	91.7 ± 2.8	89.1 ± 4.1	92.9 ± 2	80.4 ± 1.8	106 ± 4.5	105 ± 8.7	94.7 ± 5.1	90.9 ± 10	91.9 ± 2.2	76.8 ± 6.9	> 100	> 100	acts on both the initial and postadsorption stages of virus replication	viability at 72 h, 0.39 µM ([1]; -F127 (PBS)): 94.6 ± 2.9%; viability at 72 h, 0.78 µM ([1]; -F127 (PBS)): 102 ± 4.2%; viability at 72 h, 1.56 µM ([1]; -F127 (PBS)): 108 ± 15.4%; toxic concentration ([2]; used to choose concentrations for the virucidal test): > 100 µM; effect on HSV-1 reproduction ([3]; compound only at the cell infection stage (3a + HSV-1 + media), 100 µM, MOI 0.1, 48 h): did not significantly suppress the reproduction of the virus; effect on HSV-1 reproduction ([3]; compound with virus and after washing (3a + HSV-1 + 3a) or post-infection (HSV-1 + 3a), 100 µM, MOI 0.1, 48 h): suppressed the reproduction of the virus
C[n+]1ccc(-c2c3nc(c(-c4cc[n+](C)cc4)c4ccc([nH]4)c(-c4cc[n+](C)cc4)c4nc(c(-c5cc[n+](C)cc5)c5ccc2[nH]5)C=C4)C=C3)cc1 [TMePyP, 5,10,15,20-tetrakis(1-methyl-4-pyridinio)porphyrin tetraiodide, reference compound]	82.9 ± 5.4	79.9 ± 2.3	90.2 ± 9.7	95.2 ± 6	90.4 ± 2.7	83 ± 8.6	95.2 ± 3.2	114 ± 6.2	104 ± 1.2	101 ± 5	98.5 ± 5	97.4 ± 4.6	95.3 ± 5.3	93.7 ± 5.5	89.6 ± 6.8	> 100	> 100	affected both the initial and late stages of virus replication	effect on HSV-1 reproduction ([3]; introduced at the stage of virus adsorption, 12 μM): did not suppress the HSV-1 reproduction; effect on HSV-1 replication ([3]; 25 μM): completely suppressed its replication; effect on HSV-1 replication ([3]; 50 μM): completely suppressed its replication
